Data published in the NIST ThermoML archive (doi:10.1021/je030151s).

Assay: xn = mol fraction of the nth substance listed
Details: 101.3 kPa, Liquid; for viscosity: Capillary tube (Ostwald / Ubbelohde) method

CCC(=O)CC [pentan-3-one] + Cc1ccccc1C
Details | mass density, 293.15 K [kg/m3] | mass density, 303.15 K [kg/m3] | mass density, 313.15 K [kg/m3] | speed of sound, 293.15 K [m/s] | speed of sound, 303.15 K [m/s] | speed of sound, 313.15 K [m/s] | viscosity, 293.15 K [mPa·s] | viscosity, 303.15 K [mPa·s] | viscosity, 313.15 K [mPa·s]
x1 = 0.0955 | 878 | 870.5 | 862.4 | 1357 | 1328 | 1287.6 | 0.7649 | 0.677 | 0.5965
x1 = 0.2073 | 875 | 868.5 | 859.4 | 1345.1 | 1315 | 1277 | 0.7182 | 0.638 | 0.565
x1 = 0.3191 | 871.1 | 863.1 | 855 | 1333.5 | 1303 | 1262 | 0.675 | 0.6003 | 0.533
x1 = 0.4298 | 865.3 | 857.3 | 848.8 | 1318.8 | 1287 | 1251 | 0.636 | 0.562 | 0.502
x1 = 0.5338 | 859.5 | 850.5 | 842.5 | 1306 | 1272 | 1238 | 0.6001 | 0.5271 | 0.474
x1 = 0.6363 | 852.1 | 844 | 835.5 | 1292.2 | 1255.8 | 1224 | 0.568 | 0.497 | 0.447
x1 = 0.7329 | 845 | 837.3 | 827.9 | 1279.4 | 1245 | 1208.3 | 0.537 | 0.4719 | 0.424
x1 = 0.8283 | 836.8 | 829.1 | 819.9 | 1266.2 | 1229 | 1194 | 0.51 | 0.4481 | 0.4034
x1 = 0.9242 | 826.3 | 817 | 808.2 | 1250.9 | 1213 | 1179.3 | 0.4882 | 0.4333 | 0.3872
x1 = 1 | 814.4 | 804.7 | 794.9 | 1230.7 | 1197.8 | 1159.1 | 0.4714 | 0.4231 | 0.3799

CCC(=O)CC [pentan-3-one] + CCc1ccccc1
Details | mass density, 293.15 K [kg/m3] | mass density, 303.15 K [kg/m3] | mass density, 313.15 K [kg/m3] | speed of sound, 293.15 K [m/s] | speed of sound, 303.15 K [m/s] | speed of sound, 313.15 K [m/s] | viscosity, 293.15 K [mPa·s] | viscosity, 303.15 K [mPa·s] | viscosity, 313.15 K [mPa·s]
x1 = 0.0911 | 867 | 855.9 | 848.3 | 1328.5 | 1290.2 | 1254.5 | 0.6538 | 0.5795 | 0.5116
x1 = 0.2055 | 865.5 | 855.1 | 847 | 1319 | 1281.9 | 1246.6 | 0.625 | 0.5539 | 0.4881
x1 = 0.3176 | 863.2 | 852.8 | 844.5 | 1309.6 | 1272.2 | 1237.2 | 0.6015 | 0.5281 | 0.4642
x1 = 0.4296 | 860.1 | 849.9 | 840.8 | 1298 | 1264.5 | 1227.2 | 0.5789 | 0.5046 | 0.4429
x1 = 0.5331 | 854.8 | 845.3 | 836.6 | 1287 | 1252.3 | 1217.5 | 0.5574 | 0.486 | 0.4247
x1 = 0.6387 | 848.5 | 839.6 | 830.6 | 1275 | 1242 | 1206 | 0.534 | 0.469 | 0.411
x1 = 0.7378 | 842.5 | 833.4 | 824.5 | 1263 | 1230 | 1195 | 0.516 | 0.454 | 0.399
x1 = 0.8322 | 835 | 826.8 | 817.5 | 1251 | 1217.5 | 1184.4 | 0.4975 | 0.441 | 0.388
x1 = 0.9245 | 826 | 818 | 808 | 1240.3 | 1206.6 | 1172.5 | 0.4811 | 0.4309 | 0.38
x1 = 1 | 814.4 | 804.7 | 794.9 | 1230.7 | 1197.8 | 1159.1 | 0.4714 | 0.4231 | 0.3799
